PubChem BioAssay AID540269 (Sanford-Burnham Center for Chemical Genomics, 2011)
Several values for one entry are separate records, joined by “and”; a condition that tells them apart may be missing. Identical values can stand only once. Activity calls are given as the source filed them. No rule for the calls is given here.

These compounds were tested against glucose-6-phosphate dehydrogenase-6-phosphogluconolactonase (Plasmodium falciparum 3D7) (assay: inhibition of P. falciparum G6PD activity – biochemical, kinetic NADPH detection, orthogonal assay, dose response (AID 540269)). Settings: purified PfG6PD-6PGL.

Compound | IC50
CC(C)c1cc2c(c(O)c1O)[C@@]13CCCC(C)(C)C1CC2OC3=O (stereo partly specified) | 58.4 µM
CC1(OC(=O)C2CCCC2)C(=O)C=C2C=C(c3ccsc3)N(CC3CC3)C=C2C1=O (stereo unspecified) | > 80 µM (inactive)
CC(=O)Nc1ccc(S(=O)(=O)/N=C2\C(=O)c3ccccc3C([O-])=C2n2cc[n+](-c3ccccn3)c2)cc1 | > 80 µM (inactive)
COc1cc(/C=N/n2cc(-c3ccccc3)[nH]c2=S)cc(OC)c1O | 11.2 µM
CCN1CCN(C(=S)c2ccc(Cl)c(Cl)c2)CC1 | > 80 µM (inactive)
c1ccc(OCc2nnc3n2N=C(c2ccccc2)CS3)cc1 | > 80 µM (inactive)
Oc1ccc(-c2cn3c(n2)SCC3)cc1O | 46.5 µM
Cc1ccc(NC(=O)c2cc(C)n(-c3ccccc3)c2C)cc1 | > 80 µM (inactive)
NC1CCc2cc(O)c(O)cc2C1 (stereo unspecified) | 34.5 µM
CC1(C)CN(c2ccccc2)N(C(=O)c2ccc(C#N)cc2)C1=O | > 80 µM (inactive)
Cc1ccc(C(=O)/C=C/C(=O)c2ccc(C)cc2)cc1 | > 80 µM (inactive)
CN(C)c1ncc(C2=C(Cl)C(=O)C(N3CCCC3)=C(Cl)C2=O)s1 | 35.6 µM
COc1cccc(-c2c(C(=O)N/N=C/c3ccc(C)o3)nnn2-c2nonc2N)c1 | 12.7 µM
Cc1cc(NC(=O)c2oc3ccccc3c2C)ccc1-n1cnnn1 | 14.9 µM
COC(=O)CCC(=O)OC1(C)C(=O)C2=CN(c3ccccc3)C(c3ccc(OC)cc3)=CC2=C(Br)C1=O (stereo unspecified) | > 80 µM (inactive)
COc1cc(N2C(=O)C=CC2=O)ccc1N1C(=O)C=CC1=O | 19.5 µM
COC(=O)c1cc2c(n1S(=O)(=O)c1ccc(C)cc1)C(=O)C(=O)c1[nH]cc(C(=O)OCc3ccccc3)c1-2 | > 80 µM (inactive)
COc1ccc(CCn2c(NN=C3CCCC3)nc3c2c(=O)[nH]c(=O)n3C)cc1 | > 80 µM (inactive)
O=C(CCC(=O)OCC(=O)c1ccc([N+](=O)[O-])cc1)Nc1ccccc1Cl | > 80 µM (inactive)
O=C(Nc1nnc(S(=O)(=O)N2CCCCC2)s1)c1cccc(Br)c1 | 23.8 µM
CCOc1ccc(Cl)cc1/C=N/NC(N)=O | 48.7 µM
O=C(COc1cccc2ccccc12)Nc1ccc(Cl)cc1C(=O)O | 33.7 µM

Compound | IC50
COc1cc(NC(C)CCc2ccccc2)cc(OC)c1OC (stereo unspecified) | > 80 µM (inactive)
COc1cc(-c2nnc3n2N=C(c2ccccc2)CS3)cc(OC)c1OC | > 80 µM (inactive)
C[C@H](CO)N1C[C@H](C)[C@@H](CN(C)C(=O)Nc2ccc(C(F)(F)F)cc2)Oc2c(cccc2N(C)C)C1=O | > 80 µM (inactive)
CN1CCc2cccc3c2[C@@H]1Cc1ccc(O)c(O)c1-3 | > 80 µM (inactive)
O=C(Cc1ccccc1)NCC(=O)OCC(=O)c1ccc([N+](=O)[O-])cc1 | 57.9 µM
Cc1cc(O)c(-c2cc(O)c(C)cc2O)cc1O | 44.5 µM
CN1/C(=C\C(=O)c2cccs2)Sc2ccccc21 | 26.1 µM
O=c1[nH]c2ccccc2n2c(-c3ccccc3)nnc12 | 13.2 µM
O=C(Nc1ccc(N2CCOCC2)c(Cl)c1)c1ccc(Cl)cc1 | > 80 µM (inactive)
Cc1cc(C)c[n+](C2=C([O-])c3ccccc3C(=O)/C2=N\S(=O)(=O)c2cccs2)c1 | > 80 µM (inactive)
O=[N+]([O-])c1ccc(-[n+]2ccc3ccccc3c2)c([N+](=O)[O-])c1 | > 80 µM (inactive)
Cc1c(/C=C/C(=O)c2ccc(Cl)s2)cnn1C | 41.1 µM
CC(=O)Nc1ccc2c(c1)Cc1cc(N3C(=O)C=CC3=O)ccc1-2 | 27.2 µM
O=C(CCSCCC(=O)NN=Cc1ccccc1)NN=Cc1ccccc1 | > 80 µM (inactive)
Cn1c(=O)c2[nH]c(-c3ccccc3)c(O)c2n(C)c1=O | > 80 µM (inactive)
COc1cccc2nc3cc(C)c(C)cc3nc12 | > 80 µM (inactive)
Cc1c(Cl)c([N+](=O)[O-])nn1Cc1ccc(C(=O)N/N=C\c2cccc(Br)c2)o1 | > 80 µM (inactive)
CCNc1nc(NC(C)C)nc(NS(=O)(=O)c2ccc(Cl)cc2)n1 | > 80 µM (inactive)
CCC1(C)CC(C(N)=S)CCO1 (stereo unspecified) | > 80 µM (inactive)
Cc1ccc(-n2sc3cc(F)ccc3c2=O)c(C)c1 | 12.5 µM
COC(=O)CCC(=O)OC1(C)C(=O)C2=CN(c3ccc(OC)cc3)C(c3ccc(OC)cc3)=CC2=C(Br)C1=O (stereo unspecified) | > 80 µM (inactive)
COC(=O)c1ccccc1NC1=C/C(=N\S(=O)(=O)c2cccs2)c2ccccc2C1=O | 35.7 µM and 60.4 µM

Compound | IC50
COc1cc(N)c2ncsc2c1 | > 80 µM (inactive)
O=C1C=CC(=O)N1CCNc1ncc(C(F)(F)F)cc1Cl | 34.8 µM
O=C1C=CC(=O)N1c1ccc(N2CCCCC2)cc1 | 37 µM
Oc1ccc(C2C[C@H]3CC[C@@H]2C3)cc1O (stereo partly specified) | 48.6 µM
Cc1cc(C)nc(NC(N)=NCCc2ccccc2)n1 | > 80 µM (inactive)
Cc1ccc(S(=O)(=O)NNc2ccccc2)cc1 | 54.1 µM
CC1=CC(C)(C)Nc2ccc(OC(=O)CN3C(=O)CCC3=O)cc21 | 63.2 µM
N#CC1=C(N)Oc2c(O)cc3ccccc3c2C1c1ccsc1 (stereo unspecified) | 55.6 µM
Cc1ccc(-c2c(C(=O)N/N=C/c3cccs3)nnn2-c2nonc2N)cc1 | > 80 µM (inactive)
COc1ccc(C(=O)c2c(C(F)(F)F)oc3c2C(=O)c2ccccc2C3=O)cc1OC | > 80 µM (inactive)
COc1ccc(NS(=O)(=O)c2ccc(N3CCCC3)c(NC(=S)Nc3cccc(C)c3C)c2)cc1 | > 80 µM (inactive)
Cc1cc(=O)[nH]c(N/N=C/c2c(C)nn(-c3ccccc3)c2Cl)n1 | 17.1 µM
CC(=O)Nc1cc2c(cc1[N+](=O)[O-])-c1ccccc1C2O (stereo unspecified) | > 80 µM (inactive)
O=C(Cn1sc2ccccc2c1=O)NC12CC3CC(CC(C3)C1)C2 | 13.5 µM
COc1ccc(Nc2cc(C)c3c(O)cccc3n2)cc1 | > 80 µM (inactive)
CC(=O)Nc1cc([N+](=O)[O-])ccc1OCc1ccccc1 | > 80 µM (inactive)
C=CCN1CCc2cccc3c2[C@H]1Cc1ccc(O)c(O)c1-3 | > 80 µM (inactive)
CC(C)Nc1ccc(Nc2ccccc2)cc1 | > 80 µM (inactive)
Cc1cc(SCC(=O)N/N=C/c2ccco2)nc2ccccc12 | > 80 µM (inactive)
Cn1cc(S(=O)(=O)CC(=O)N2CCc3ccccc32)c2ccccc21 | > 80 µM (inactive)
CC(NC(=O)c1sc2cc([N+](=O)[O-])ccc2c1Cl)C(C)(C)C (stereo unspecified) | > 80 µM (inactive)
CCOc1ccc2ccccc2c1/C=N/NC(=O)c1ccncc1 | > 80 µM (inactive)

Compound | IC50
O=C(CSc1nc2ccccc2[nH]1)NC1CCCc2ccccc21 (stereo unspecified) | > 80 µM (inactive)
Cc1ccc(/C=C/C(=O)NC2CCCCCCC2)o1 | > 80 µM (inactive)
COc1ccc(NC(=S)N(CCC(C)C)C2CCN(C(C)C)CC2)cc1Cl | 56.6 µM
CCOC(=O)Cc1cc(=O)n2[nH]c(C(C)(C)C)cc2n1 | > 80 µM (inactive)
O=C(Cn1sc2ccccc2c1=O)Nc1ccc(F)cc1 | 13.8 µM
COC(=O)[C@H](C)NC(=O)c1cc2c(cn1)[nH]c1ccccc12 | 51 µM
O=[N+]([O-])c1c(NCCCO)cc(Sc2nc3ccccc3s2)c2nonc12 | 73.7 µM
CCS(=O)(=O)N1CCN(c2ccc([N+](=O)[O-])c(NC(C)c3ccccc3)c2)CC1 (stereo unspecified) | > 80 µM (inactive)
O=C(CN1CCN(c2ccc(O)cc2)CC1)Nc1cc(S(=O)(=O)N2CCOCC2)ccc1Cl | > 80 µM (inactive)
Cc1cccc(-n2c(=S)[nH]c3sc4c(c3c2=O)CCc2ccccc2-4)c1 | 40.9 µM
O=C(O)c1cc(N2C(=O)C=CC2=O)cc(N2C(=O)C=CC2=O)c1 | 19.6 µM
CCN(CC)C(=O)c1c(C)[nH]c(=S)c(C#N)c1-c1ccco1 | > 80 µM (inactive)
S=C(NN=Cc1ccccn1)N(Cc1ccccn1)Cc1ccccn1 | 29.5 µM
Oc1ccc(C23CC4CC(CC(C4)C2)C3)cc1O | 37.8 µM
CCCn1cc(S(=O)(=O)CC(=O)Nc2ccc(OC)cc2OC)c2ccccc21 | > 80 µM (inactive)
CC(C)(C)c1ccc(C(=O)Nc2sc3c(c2C(=O)O)CCC3)cc1 | 12.7 µM
O=[N+]([O-])c1c(NCCO)cc(Sc2nc3ccccc3s2)c2nonc12 | > 80 µM (inactive)
O=c1c2cc(F)ccc2sn1-c1ccccc1Cl | 12.7 µM
Cc1ccc(S(=O)(=O)C=CS(=O)(=O)c2ccc(C)cc2)cc1 | 41.2 µM
CCN(CC)c1ccc(C(=C2C=CC(=[N+](CC)CC)C=C2)c2ccccc2)cc1 | > 80 µM (inactive)
Cc1ccnc(-n2sc3ccccc3c2=O)n1 | 26.4 µM
N#C/C(C(=O)Nc1ccc(Cl)cc1)=C(/S)Nc1ccccc1 | 41.5 µM

Compound | IC50
Cc1ccc(S(=O)(=O)SCCCSS(=O)(=O)c2ccc(C)cc2)cc1 | 35.6 µM
Cc1ccc(CNc2ccc(O)cc2)cc1 | 45.1 µM
O=c1c2ccccc2sn1-c1ccccc1F | 15.5 µM
Cc1cc(C)c2c(=O)n(CC(=O)Nc3ccc(Cl)cc3)sc2n1 | > 80 µM (inactive)
C[c-]1[c-](C)[c-](C)[c-](C)[c-]1C.[Fe].c1cc2nccc(N3CCCC3)[c-]2c1 (stereo unspecified) | 52.9 µM
O=C(Nc1ccc([N+](=O)[O-])cc1Cl)c1cc(Cl)ccc1O | > 80 µM (inactive)
O=C(CNC(=O)c1ccccc1)NCC(=O)OCC(=O)c1ccc([N+](=O)[O-])cc1 | 67.1 µM
COc1ccc(C(=O)Nc2nnc(S(=O)(=O)N3CCOCC3)s2)cc1 | 32.8 µM
Cc1ccc(-c2nc(N3CCOCC3)s[n+]2-c2ccccc2)cc1 | > 80 µM (inactive)
COc1ccc(C(=O)ON=C2C=C(C)C(=O)C(C)=C2)cc1 | > 80 µM (inactive)
CCN(CC)c1ccc(C(=C2C=CC(=[N+](CC)CC)C=C2)c2ccc(N(CC)CC)cc2)cc1 | 16.1 µM
Cc1ccccc1OCC(=O)N/N=C/c1ccc(Sc2nc3ccccc3s2)o1 | > 80 µM (inactive)
Clc1ccc(N=c2ssnc2Cl)nc1 | > 80 µM (inactive)
COc1cc(N=Cc2c(CO)cnc(C)c2O)cc(OC)c1OC | 30.5 µM
Cc1ccc2nc(-c3ccc(NC(=S)NC4CC(C)(C)NC(C)(C)C4)cc3)sc2c1 | > 80 µM (inactive)
CC(NC1=CC(=O)c2cccnc2C1=O)C(O)c1ccccc1 (stereo unspecified) | 45.1 µM
CC(=O)OCC1(C)CN(c2ccccc2)NC1=O (stereo unspecified) | > 80 µM (inactive)
O=C1OC(c2ccc3ccccc3c2O)(c2ccc3ccccc3c2O)c2ccccc21 | > 80 µM (inactive)
